From patent US20260327264A1, “PEPTIDE INHIBITORS OF INTERLEUKIN-23 RECEPTOR” (Zealand Pharma A/S, priority 2023, published 2026)

Columns and labels:
IL-23R = conditions: see Examples of WO2023/099669; cited from earlier work
human IL-23R = target: T1, human IL-23R (Homo sapiens, UniProt Q5VWK5); assay: Binding assay: displacement of fluorophore (TAMRA)-labelled reference compound from human IL-23R (BRET, Nluc-IL23R fusion protein membranes); conditions: read-out: % displacement (hIL-23R binding)
T1 construct: Nanoluc luciferase (Nluc); secretion signal encoded by the plasmid (not specified); expressed in transfected cells; crude membranes used in the assay
T1 sequence (Q5VWK5 22-629): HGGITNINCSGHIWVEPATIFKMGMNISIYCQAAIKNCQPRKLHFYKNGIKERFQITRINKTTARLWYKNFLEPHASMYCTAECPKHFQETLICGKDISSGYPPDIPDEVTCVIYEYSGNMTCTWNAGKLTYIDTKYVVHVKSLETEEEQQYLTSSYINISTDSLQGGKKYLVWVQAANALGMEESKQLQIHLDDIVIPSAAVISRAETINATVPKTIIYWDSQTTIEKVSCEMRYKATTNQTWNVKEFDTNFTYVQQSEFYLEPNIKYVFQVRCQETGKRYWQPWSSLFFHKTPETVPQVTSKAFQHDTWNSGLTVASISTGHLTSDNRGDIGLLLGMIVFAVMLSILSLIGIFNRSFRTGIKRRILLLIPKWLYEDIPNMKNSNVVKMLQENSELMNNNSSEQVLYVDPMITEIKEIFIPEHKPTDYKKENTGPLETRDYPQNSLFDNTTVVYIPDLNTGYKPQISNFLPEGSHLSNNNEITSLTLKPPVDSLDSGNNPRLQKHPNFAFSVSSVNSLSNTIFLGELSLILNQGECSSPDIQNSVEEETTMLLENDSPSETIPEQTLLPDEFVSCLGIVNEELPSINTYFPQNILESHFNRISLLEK

[1] = test system: IL-23 mediated STAT3 signalling (DB cells); assay: Functional inhibition of IL-23 mediated STAT3 signalling (phospho-STAT3 Tyr705) in DB cells; assay type: cell-based, human; conditions: for IC50: Table 3-2, EC80 of hIL-23, read-out: hIL-23 (pSTAT3) antagonist IC50; for hIL-23 (pSTAT3) antagonist % inhibition: Table 3-2, maximal inhibitory response, EC80 of hIL-23
In short: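 DB cells preincubated 15 min with inhibitor at 37° C, 5% CO2, then stimulated 90 min with hIL-23 at EC80. Lysate phospho-STAT3 measured by MSD electrochemiluminescence. Signal normalized to IL-23-alone and buffer wells; IC50 and maximal inhibition from concentration–response curves.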

[2] = Peptide stability in simulated intestinal fluid (SIF); assay type: in vitro ADME; conditions: pig, simulated intestinal fluid, SIF, pH 6.8, pancreatin, 37° C., 10 μM
In short: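 Peptide at 10 μM final in USP-type SIF (10 g/L porcine pancreatin, phosphate buffer pH 6.8), shaken at 37 °C. Samples at 0, 1 and 4 h quenched in acetonitrile/0.1% formic acid and analysed by LC-HRMS. Percent remaining calculated from absolute peak areas relative to time zero.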

[3] = Peptide stability in simulated gastric fluid (SGF); assay type: in vitro ADME; conditions: pig, pH 1.2, pepsin, 37° C.
In short: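 Peptide (10 μM final) incubated at 37 °C in USP SGF, pH 1.2 with porcine pepsin 3.2 g/L; aliquots at 0, 1 and 4 h quenched in acidified acetonitrile.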

[Ac]-DK(1c)SC(2a)WQC(2a)WWLE(1c)R-[NH2] [Ref 7]
inhibitory activity (in words), WO2023/099669 (IL-23R): inactive

D(1c)*SC(2a)WQC(2a)WWLR(1c)* [Ref 6]
inhibitory activity (in words), WO2023/099669 (IL-23R): inactive

H-DC(1a)SE(2c)WQK(2c)WWLC(1a)R-[NH2] [Ref 5]
inhibitory activity (in words), WO2023/099669 (IL-23R): inactive

CSCC[C@H](NC(=O)[C@@H]1CSCC(=O)CSC[C@H](NC(=O)[C@@H](N)CCC(=O)O)C(=O)N[C@@H](Cc2c[nH]c3ccccc23)C(=O)N[C@@H](CC(C)C)C(=O)N[C@H]2CSCC(=O)CSC[C@H](NC(=O)[C@H](CC(N)=O)NC(=O)[C@H](CCCNC(=N)N)NC(=O)[C@H](Cc3ccc(O)cc3)NC(=O)[C@H](Cc3ccc(O)cc3)NC2=O)C(=O)N[C@@H](CC(N)=O)C(=O)N1)C(N)=O (single isomer, unassigned) [I4 (isomer 3), H-EC(4a)WLC(5a)YYRNC(5a)NC(4a)M-[NH2], reference compound]
Emax (human IL-23R): 84%
IC50 [1]: > 1000 nM
hIL-23 (pSTAT3) antagonist % inhibition [1]: 23%
remaining at 1 h, 10 µM [2]: 0%
remaining at 4 h, 10 µM ([2]; 4 h, read-out: SIF (% remaining 4 h)): 0%
remaining at 1 h, 10 µM [3]: 99%
remaining at 4 h, 10 µM ([3]; 4 h): 99%

CNC(=O)[C@H](Cc1cccnc1)NC(=O)[C@@H](CO)NC(=O)[C@@H]1CCC(=O)NCc2ccc(cc2)CC(=O)N[C@@H](CO)C(=O)N[C@H]2CCC(=O)NCC[C@H](NC(=O)[C@H](CCC(N)=O)NC(=O)[C@H](Cc3c[nH]c4ccccc34)NC2=O)C(=O)N[C@@H](Cc2ccc(OCCN)cc2)C(=O)N[C@@H](Cc2ccc3ccccc3c2)C(=O)N[C@@](C)(CC(C)C)C(=O)N1 [Compound 38, [4-Aminomethyl-phenylacetyl](1c)*SE(2c)WQ[Dab](2c)[Y(2-aminoethoxy)][2-Nal][2-Me-Leu]E(1c)[{d}S][3-(3-Pyridyl)-Ala]-[NHMe]]
Emax (human IL-23R): 102%
IC50 [1]: 1 nM
hIL-23 (pSTAT3) antagonist % inhibition [1]: 100%
remaining at 1 h, 10 µM [2]: 82%
remaining at 1 h, 10 µM [3]: 100%
